Results on three molecules are retold here after BindingDB's records for doi:10.1021/jm00128a028 (Roche Research Center, 1989).

This assay has as its target Thromboxane-A synthase (Rattus norvegicus) (UniProt P49430). Description: Inhibitory activity to inhibit Inophore-induced arachidonic acid metabolism (inhibition of TXB2 formation) in rat.

Sequence of Thromboxane-A synthase (Rattus norvegicus) (P49430 whole entry, looked up): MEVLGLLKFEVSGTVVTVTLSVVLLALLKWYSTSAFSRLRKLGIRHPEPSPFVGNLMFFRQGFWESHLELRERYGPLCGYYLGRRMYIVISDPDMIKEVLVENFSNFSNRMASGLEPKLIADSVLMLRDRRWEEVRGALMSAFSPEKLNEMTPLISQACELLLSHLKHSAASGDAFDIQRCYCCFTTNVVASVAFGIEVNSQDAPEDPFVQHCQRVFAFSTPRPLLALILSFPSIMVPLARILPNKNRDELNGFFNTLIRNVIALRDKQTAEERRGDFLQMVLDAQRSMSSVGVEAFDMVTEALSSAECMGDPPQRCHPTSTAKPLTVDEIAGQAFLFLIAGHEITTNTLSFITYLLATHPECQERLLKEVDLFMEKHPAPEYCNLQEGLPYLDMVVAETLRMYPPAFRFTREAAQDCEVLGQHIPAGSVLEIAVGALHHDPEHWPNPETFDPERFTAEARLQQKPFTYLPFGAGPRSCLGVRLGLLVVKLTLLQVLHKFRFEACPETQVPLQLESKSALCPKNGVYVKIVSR

Regarding `CCCc1c(OCCCCCOc2cc3c(cc2C(C)=O)CCC(C(=O)O)O3)ccc(C(C)=O)c1O` (stereo not drawn) [Ro-23-3544], the 50% inhibitory concentration (IC50) turned out to be 6000 nM. Next, `COc1ccc2c(c1)c(CC(=O)O)c(C)n2C(=O)c1ccc(Cl)cc1` [indometacin]: 100 nM; `CC(C)c1ccc2c(c1)c(SC(C)(C)C)c(CC(C)(C)C(=O)O)n2Cc1ccc(Cl)cc1`: 2000 nM.

A word on the IC50: it is the point on the concentration scale where inhibition reaches its midpoint. Low readings indicate inhibition by little substance, high ones a need for much substance.
